Source: the supplement of paper PMC11451515

System: P12-Ichikawa
Experiment: cell viability relative to DMSO control; higher = less cytotoxic
Conditions: 48 h
How it was run: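 NOMO1, SEM and P12-Ichikawa leukemia cells spent at least four passages adapting to each medium before use. They were seeded at 500 cells/well (NOMO1, SEM) or 1000 cells/well (P12-Ichikawa) in 5 μl in 1536-well plates and pin-dosed with library compounds in DMSO at 11 threefold steps from 47 μM down to 0.79 nM. After 48 h at 37°C, CellTiter-Glo One luminescence was read. Viability is reported as a percentage of the DMSO wells on each plate, with cell-free wells as background.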

[1] = HPLM + 10% dialyzed FBS, 0.000781 µM
[2] = HPLM + 10% dialyzed FBS, 0.00234 µM
[3] = HPLM + 10% dialyzed FBS, 0.00702 µM
[4] = HPLM + 10% dialyzed FBS, 0.0211 µM
[5] = HPLM + 10% dialyzed FBS, 0.0632 µM
[6] = HPLM + 10% dialyzed FBS, 0.19 µM
[7] = HPLM + 10% dialyzed FBS, 0.569 µM
[8] = HPLM + 10% dialyzed FBS, 1.71 µM
[9] = HPLM + 10% dialyzed FBS, 5.12 µM
[10] = HPLM + 10% dialyzed FBS, 15.4 µM
[11] = HPLM + 10% dialyzed FBS, 46.1 µM
[12] = RPMI 5 mM glucose + 10% FBS, 0.000781 µM
[13] = RPMI 5 mM glucose + 10% FBS, 0.00234 µM
[14] = RPMI 5 mM glucose + 10% FBS, 0.00702 µM
[15] = RPMI 5 mM glucose + 10% FBS, 0.0211 µM
[16] = RPMI 5 mM glucose + 10% FBS, 0.0632 µM
[17] = RPMI 5 mM glucose + 10% FBS, 0.19 µM
[18] = RPMI 5 mM glucose + 10% FBS, 0.569 µM
[19] = RPMI 5 mM glucose + 10% FBS, 1.71 µM
[20] = RPMI 5 mM glucose + 10% FBS, 5.12 µM
[21] = RPMI 5 mM glucose + 10% FBS, 15.4 µM
[22] = RPMI 5 mM glucose + 10% FBS, 46.1 µM
[23] = RPMI 5 mM glucose + 10% dialyzed FBS, 0.000781 µM
[24] = RPMI 5 mM glucose + 10% dialyzed FBS, 0.00234 µM
[25] = RPMI 5 mM glucose + 10% dialyzed FBS, 0.00702 µM
[26] = RPMI 5 mM glucose + 10% dialyzed FBS, 0.0211 µM
[27] = RPMI 5 mM glucose + 10% dialyzed FBS, 0.0632 µM
[28] = RPMI 5 mM glucose + 10% dialyzed FBS, 0.19 µM
[29] = RPMI 5 mM glucose + 10% dialyzed FBS, 0.569 µM
[30] = RPMI 5 mM glucose + 10% dialyzed FBS, 1.71 µM
[31] = RPMI 5 mM glucose + 10% dialyzed FBS, 5.12 µM
[32] = RPMI 5 mM glucose + 10% dialyzed FBS, 15.4 µM
[33] = RPMI 5 mM glucose + 10% dialyzed FBS, 46.1 µM

SMILES	cell viability [1]	cell viability [2]	cell viability [3]	cell viability [4]	cell viability [5]	cell viability [6]	cell viability [7]	cell viability [8]	cell viability [9]	cell viability [10]	cell viability [11]	cell viability [12]	cell viability [13]	cell viability [14]	cell viability [15]	cell viability [16]	cell viability [17]	cell viability [18]	cell viability [19]	cell viability [20]	cell viability [21]	cell viability [22]	cell viability [23]	cell viability [24]	cell viability [25]	cell viability [26]	cell viability [27]	cell viability [28]	cell viability [29]	cell viability [30]	cell viability [31]	cell viability [32]	cell viability [33]
Cc1cc(SCc2sc(-c3ccc(C(F)(F)F)cc3)nc2C)ccc1OCC(=O)O	97.8%	102%	102%	104%	102%	99.8%	106%	100%	103%	94.9%	90.6%	98.3%	104%	96.6%	101%	106%	91.2%	101%	94.6%	94.8%	81.1%	83.2%	96.8%	101%	102%	96.6%	94.8%	97%	101%	92.5%	97.6%	87.2%	83.5%
COc1cc(NC(=O)c2ccc(-c3ccc(Cl)cc3)o2)cc(OC)c1	93.8%	111%	110%	112%	115%	109%	111%	111%	101%	99.2%	104%	97.4%	105%	100%	115%	108%	115%	108%	117%	101%	99.5%	95.5%	84%	107%	114%	113%	112%	107%	115%	104%	101%	94.3%	104%
Nc1nc(Nc2ccc([S+](N)(=O)[O-])cc2)nn1C(=O)c1c(F)cccc1F	104%	109%	103%	106%	112%	110%	106%	112%	90.7%	101%	21.5%	107%	106%	110%	113%	104%	105%	111%	101%	83.7%	81.7%	23.1%	111%	106%	105%	107%	114%	115%	109%	108%	84.9%	86.6%	24.3%
CCc1cccc2c3c([nH]c12)C(CC)(CC(=O)O)OCC3 (stereo not drawn)	108%	107%	110%	109%	104%	105%	105%	108%	99.4%	99.2%	93.7%	104%	107%	106%	103%	101%	99.9%	100%	93.1%	96.4%	96.6%	85.7%	94.4%	98%	99.9%	103%	102%	101%	98.9%	98.1%	92.9%	94.1%	84.8%
COC(=O)Nc1ccc(-c2nc(N3CCOCC3)c3cnn(C4CCN(Cc5cccnc5)CC4)c3n2)cc1	113%	117%	112%	113%	109%	96.2%	83.5%	83.6%	51.1%	31.9%	12.9%	106%	111%	102%	103%	98.3%	69.9%	61%	61.4%	43.1%	32.4%	24.7%	113%	118%	114%	116%	100%	72.3%	65.2%	59.8%	53.1%	43.5%	6.49%
CCN1\C=C(C(O)=O)/C(=O)C2=C1C=C(N3CCN(C)CC3)C(=C2)F	117%	118%	114%	107%	116%	113%	108%	105%	90.7%	77.5%	71.5%	110%	116%	117%	108%	117%	120%	108%	112%	84%	73.9%	69.1%	110%	121%	112%	121%	109%	123%	108%	104%	83.1%	69.1%	61.9%
O=[N+]([O-])c1ccc(Nc2ccccc2-c2ccccc2)c2nonc12	85.2%	90.1%	92.4%	91.2%	85.1%	90.4%	94.2%	96.7%	90.6%	91%	89.4%	83.6%	91.2%	86.4%	91.1%	90.6%	88%	93.4%	95.4%	90.7%	96.2%	86.5%	89.6%	87.1%	84.8%	92.3%	93.8%	97.6%	94.1%	90.7%	88.7%	95.2%	84.9%
COc1ccccc1OCCNCC(O)COc1cccc2[nH]c3ccccc3c12 (stereo not drawn)	121%	124%	124%	118%	119%	117%	122%	119%	109%	113%	100%	–	–	–	–	–	–	–	–	–	–	–	119%	115%	119%	119%	122%	122%	115%	124%	112%	112%	99.6%
